Laboratory results taken from article PMC9144145, “Preclinical Safety and Pharmacokinetics of Heat Stable Oxytocin in Sublingual Fast-Dissolving Tablet Formulation” (Pharmaceutics, 2022).

Assay: GLP toxicokinetic study in anesthetized rabbits, plasma oxytocin by LC-MS/MS
Assay type: in vivo
Conditions: rabbit, IM, 10 IU
Method: The toxicokinetic study in rabbits (Table 2) was conducted at a contract animal facility (Noble Life Sciences, Sykesville, MD, USA) under approval from Noble Life Sciences IACUC (approval code: NLS-589, date: 13 May 2020) and in compliance with the U.S. Food and Drug Administration Good Laboratory Practice Regulations for Nonclinical Laboratory Studies (21 CFR Part 58).
For SL placement of fast dissolving tablets, the rabbit was anesthetized and positioned on a flat table, with the lower jaw strongly supported in a horizontal level on the table. Using rounded tip stainless tweezers, the rabbit’s tongue was carefully raised, and the sublingual tablet was placed beneath the tongue (see Figure 1). Anesthesia was maintained for 3 h after drug administration to keep the tablet in sublingual position and prevent entering the gastrointestinal tract.
Animals were not fasted prior to blood collection. Blood was collected at the time points of 0 min (pre-dose) and 5, 10, 15, 20, 30, 60, 120, and 180 min post-dose and at euthanasia only the first four animals for SL group. All animals were anesthetized pre-dose, prior to dosing. All animals were anesthetized with ketamine (35–50 mg/kg) and xylazine (3–5 mg/kg) via a subcutaneous or intramuscular (IM) route followed by maintenance anesthesia with additional half doses if needed or via inhaled isoflurane. At the selected time points, whole blood was collected aseptically from the auricular artery and dispensed into the appropriate collection tubes in any order: (1) K3 EDTA for hematology determinations; (2) 0.129 M, 3.8% sodium citrate for coagulation analyses (plasma); (3) serum separator tube for serum chemistry and C-reactive protein; and (4) aprotinin-spiked (K2EDTA) tubes for plasma oxytocin determinations. Tubes containing hematology specimens were placed at room temperature on a rocker for at least 30 min prior to shipment. Tubes containing whole blood for serum isolation were maintained for at least 30 min and no more than 4 h at room temperature before being processed to serum. Tubes containing aprotinin-spiked (K2EDTA) specimens for oxytocin determinations were maintained on wet ice or cold packs before use and after collection. They were also maintained on a rocker for at least 30 min prior to processing.
Blood samples for oxytocin determination were collected into the Aprotinin spiked (K2EDTA) vacutainer tubes and processed for collection of plasma. The samples were processed by centrifuging for approximately 15 min at approximately 3000 rpm and approximately 4 °C; they were aliquoted into cryovials without anticoagulant and were immediately placed on dry ice. At termination, blood was collected from the SL group for serum chemistry, C-reactive protein, hematology, and coagulation. Blood collected for coagulation analyses was collected into tubes containing 3.8% sodium citrate and was processed for plasma per the Noble protocol. All serum and plasma samples were processed aseptically.
Each plasma sample was aliquoted into two vials of an approximately equal volume. All the collected plasma was analyzed for oxytocin levels by the LC-MS/MS method.
The bioanalytical method for quantification of oxytocin in rabbit plasma (K2EDTA) was validated following the FDA guidelines for a bioanalytical method validation at NorthEast BioAnalytical Laboratory, LLC (NEBA) (Hamden, CT, USA), via reverse phase liquid chromatography separation (Column: Zorbax SB C18 (Agilent, Santa Clara, CA, USA) 3.5 μm 150 × 4.6 mm, Security/Guard Cartridge Gemini C18 4 × 2.0 mm) and detection by tandem mass spectrometry (LC/MS/MS) using Sciex API-5000 Mass Spectrometer. Analysis of Oxytocin was performed using stable label internal standard, Oxytocin-d5. Oxytocin was received as an acetate salt and Oxytocin-d5 was received as Trifluoroacetate salt.
For quantitation, the LC/MS/MS data were acquired using Analyst® v1.6 software (Sciex, Framingham, MA, USA). […]

Which results are given for `CC[C@H](C)[C@@H]1NC(=O)[C@H](Cc2ccc(O)cc2)NC(=O)[C@@H](N)CSSC[C@@H](C(=O)N2CCC[C@H]2C(=O)N[C@@H](CC(C)C)C(=O)NCC(N)=O)NC(=O)[C@H](CC(N)=O)NC(=O)[C@H](CCC(N)=O)NC1=O` [Intramuscular (Control), Oxytocin]?
AUC(0-t) (plasma, linear trapezoidal, mean, n = 8): 4.82 ± 0.728 ng·h/mL; half-life (plasma, mean, n = 8): 61.2 ± 20.2 min; time to rapid increase in plasma oxytocin concentration: ≤ 5 min; Tlast (mean, n = 8): 2.88 ± 0.354 h; Tmax (plasma, LC-MS/MS, mean ± SD, n = 8, SD): 1.13 ± 0.916 h; Cmax (plasma, LC-MS/MS, mean, n = 8): 2.66 ± 0.567 ng/mL
